In ChEMBL document CHEMBL5465560, “Selectivity Literature for EUbOPEN Chemogenomic Library” (2024):

Legend:
[1] = molecular target: Serine/threonine-protein kinase PAK 1 (Homo sapiens) (UniProt Q13153); assay: Selectivity interaction (Kinase panel (DSF assay)) EUB0001558a PAK1
[2] = molecular target: Mitogen-activated protein kinase 7 (Homo sapiens) (UniProt Q13164); assay: Selectivity interaction (KinomeScan (DiscoverX)) EUB0000229b MAPK7; conditions: at 10 µM
[3] = molecular target: T1, Eukaryotic elongation factor 2 kinase (Homo sapiens) (UniProt O00418); assay: Selectivity interaction (Kinase panel (KiNativ target engagement assay in Jurkat cells)) EUB0001635a EEF2K; assay type: cell-based; conditions: Selectivity number of off-targets 0.0, Selectivity number of targets 233.0, Source Knowledge https://www.sciencedirect.com/science/article/pii/S2451945619300674?via%3Dihub, at 1 µM
T1 sequence (whole entry): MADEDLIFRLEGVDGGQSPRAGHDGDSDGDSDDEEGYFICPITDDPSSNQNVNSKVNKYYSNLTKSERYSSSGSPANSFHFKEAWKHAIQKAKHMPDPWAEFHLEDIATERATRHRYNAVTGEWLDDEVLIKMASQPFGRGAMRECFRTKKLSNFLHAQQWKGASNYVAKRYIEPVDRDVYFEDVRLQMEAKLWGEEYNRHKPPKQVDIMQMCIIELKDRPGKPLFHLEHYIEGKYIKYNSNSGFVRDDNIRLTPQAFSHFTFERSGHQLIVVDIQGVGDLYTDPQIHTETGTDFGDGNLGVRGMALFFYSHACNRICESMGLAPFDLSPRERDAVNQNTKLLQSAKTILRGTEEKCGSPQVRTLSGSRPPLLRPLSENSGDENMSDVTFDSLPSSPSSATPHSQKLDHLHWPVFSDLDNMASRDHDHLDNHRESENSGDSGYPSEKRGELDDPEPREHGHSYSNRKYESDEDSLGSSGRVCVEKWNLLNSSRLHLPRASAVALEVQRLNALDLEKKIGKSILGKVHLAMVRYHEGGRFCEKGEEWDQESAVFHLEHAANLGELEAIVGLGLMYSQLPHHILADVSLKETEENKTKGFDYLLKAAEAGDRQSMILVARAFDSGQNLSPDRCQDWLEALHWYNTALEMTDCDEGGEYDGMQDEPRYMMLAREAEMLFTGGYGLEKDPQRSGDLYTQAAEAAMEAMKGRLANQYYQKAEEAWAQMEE

[4] = molecular target: Ephrin type-A receptor 2 (Homo sapiens) (UniProt P29317); assay: Selectivity interaction (KinomeScan (DiscoverX)) EUB0000666a EPHA2; conditions: at 10 µM
[5] = molecular target: T2, Serine/threonine-protein kinase RIO3 (Homo sapiens) (UniProt O14730); conditions: at 10 µM
T2 sequence (whole entry): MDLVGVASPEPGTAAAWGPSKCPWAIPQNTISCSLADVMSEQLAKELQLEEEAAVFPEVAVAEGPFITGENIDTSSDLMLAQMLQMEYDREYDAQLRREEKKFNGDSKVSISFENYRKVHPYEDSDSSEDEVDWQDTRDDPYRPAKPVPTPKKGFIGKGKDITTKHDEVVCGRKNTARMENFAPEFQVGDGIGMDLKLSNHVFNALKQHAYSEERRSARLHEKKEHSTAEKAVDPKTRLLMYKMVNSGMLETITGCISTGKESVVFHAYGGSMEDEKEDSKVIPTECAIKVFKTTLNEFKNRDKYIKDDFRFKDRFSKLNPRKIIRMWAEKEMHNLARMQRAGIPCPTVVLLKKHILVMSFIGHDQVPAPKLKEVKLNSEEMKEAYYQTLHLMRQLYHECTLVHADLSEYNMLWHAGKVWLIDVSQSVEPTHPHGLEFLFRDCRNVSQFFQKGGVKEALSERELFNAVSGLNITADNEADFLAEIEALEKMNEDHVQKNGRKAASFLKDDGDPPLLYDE

[6] = molecular target: Mitogen-activated protein kinase 8 (Homo sapiens, UniProt P45983); assay: Selectivity interaction (Kinase panel (Z-LYTE Assay)) EUB0001632a MAPK8; conditions: at 10 µM
[7] = molecular target: Cyclin-dependent kinase 2 (Homo sapiens, UniProt P24941); assay: Selectivity interaction (KinomeScan (DiscoverX)) EUB0000607a CDK2; conditions: at 10 µM
[8] = molecular target: Wee1-like protein kinase 2 (Homo sapiens) (UniProt P0C1S8); assay: Selectivity interaction (KinomeScan (DiscoverX)) EUB0000595a WEE2; conditions: at 10 µM
[9] = molecular target: Protein kinase C eta type (Homo sapiens) (UniProt P24723); assay: Selectivity interaction (KinomeScan (DiscoverX)) EUB0000045b PRKCH
[10] = molecular target: Cyclin-dependent kinase-like 3 (Homo sapiens) (UniProt Q8IVW4); assay: Selectivity interaction (KinomeScan (DiscoverX)) EUB0000618a CDKL3; conditions: at 10 µM
[11] = molecular target: T3, Serine/threonine-protein kinase 3 (Homo sapiens) (UniProt Q13188); assay: Selectivity interaction (Ambit KINOMEscan and KiNATiv profiling in Jurkat cells) EUB0000090b STK3; assay type: cell-based; conditions: at 1 µM
T3 sequence (whole entry): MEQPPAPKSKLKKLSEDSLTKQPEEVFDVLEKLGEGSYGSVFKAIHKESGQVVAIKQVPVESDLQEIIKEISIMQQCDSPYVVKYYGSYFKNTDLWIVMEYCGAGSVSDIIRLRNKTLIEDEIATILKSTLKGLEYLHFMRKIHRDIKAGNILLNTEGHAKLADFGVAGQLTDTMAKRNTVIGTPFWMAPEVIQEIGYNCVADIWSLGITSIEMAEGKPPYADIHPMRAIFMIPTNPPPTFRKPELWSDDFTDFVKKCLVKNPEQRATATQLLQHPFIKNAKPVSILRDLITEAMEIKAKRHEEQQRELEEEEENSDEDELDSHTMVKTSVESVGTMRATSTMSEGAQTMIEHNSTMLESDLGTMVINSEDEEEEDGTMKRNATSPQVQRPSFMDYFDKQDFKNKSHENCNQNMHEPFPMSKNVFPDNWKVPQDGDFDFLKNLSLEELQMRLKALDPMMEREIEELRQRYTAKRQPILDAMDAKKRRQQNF

[12] = molecular target: Protein kinase C alpha type (Homo sapiens, UniProt P17252); assay: Selectivity interaction (ActivX KiNativ screen (ex vivo kinase selectivity in human PBMCs)) EUB0001619a PRKCA; assay type: cell-based; conditions: PBMC, at 1 µM

Chain of Protein kinase C eta type (Homo sapiens) (P24723 whole entry): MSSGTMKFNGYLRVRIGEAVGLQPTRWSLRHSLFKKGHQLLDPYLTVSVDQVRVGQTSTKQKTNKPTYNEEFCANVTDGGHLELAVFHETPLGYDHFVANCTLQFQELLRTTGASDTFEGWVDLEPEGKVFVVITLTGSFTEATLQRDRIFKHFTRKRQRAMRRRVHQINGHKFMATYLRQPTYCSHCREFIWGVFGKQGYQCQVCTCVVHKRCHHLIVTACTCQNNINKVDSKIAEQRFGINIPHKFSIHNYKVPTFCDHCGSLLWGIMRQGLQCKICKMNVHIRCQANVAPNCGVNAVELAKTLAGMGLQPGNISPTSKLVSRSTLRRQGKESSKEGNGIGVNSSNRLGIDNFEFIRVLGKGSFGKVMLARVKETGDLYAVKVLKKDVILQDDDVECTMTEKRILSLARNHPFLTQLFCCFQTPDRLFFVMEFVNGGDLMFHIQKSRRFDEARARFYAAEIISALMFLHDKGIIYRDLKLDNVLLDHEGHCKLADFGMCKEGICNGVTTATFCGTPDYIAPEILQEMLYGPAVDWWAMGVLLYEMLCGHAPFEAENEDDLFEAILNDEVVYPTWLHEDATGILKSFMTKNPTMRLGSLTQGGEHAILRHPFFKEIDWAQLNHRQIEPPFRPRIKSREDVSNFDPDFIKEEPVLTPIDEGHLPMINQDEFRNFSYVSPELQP
Chain of Mitogen-activated protein kinase 7 (Homo sapiens) (Q13164 2-816 limits assumed): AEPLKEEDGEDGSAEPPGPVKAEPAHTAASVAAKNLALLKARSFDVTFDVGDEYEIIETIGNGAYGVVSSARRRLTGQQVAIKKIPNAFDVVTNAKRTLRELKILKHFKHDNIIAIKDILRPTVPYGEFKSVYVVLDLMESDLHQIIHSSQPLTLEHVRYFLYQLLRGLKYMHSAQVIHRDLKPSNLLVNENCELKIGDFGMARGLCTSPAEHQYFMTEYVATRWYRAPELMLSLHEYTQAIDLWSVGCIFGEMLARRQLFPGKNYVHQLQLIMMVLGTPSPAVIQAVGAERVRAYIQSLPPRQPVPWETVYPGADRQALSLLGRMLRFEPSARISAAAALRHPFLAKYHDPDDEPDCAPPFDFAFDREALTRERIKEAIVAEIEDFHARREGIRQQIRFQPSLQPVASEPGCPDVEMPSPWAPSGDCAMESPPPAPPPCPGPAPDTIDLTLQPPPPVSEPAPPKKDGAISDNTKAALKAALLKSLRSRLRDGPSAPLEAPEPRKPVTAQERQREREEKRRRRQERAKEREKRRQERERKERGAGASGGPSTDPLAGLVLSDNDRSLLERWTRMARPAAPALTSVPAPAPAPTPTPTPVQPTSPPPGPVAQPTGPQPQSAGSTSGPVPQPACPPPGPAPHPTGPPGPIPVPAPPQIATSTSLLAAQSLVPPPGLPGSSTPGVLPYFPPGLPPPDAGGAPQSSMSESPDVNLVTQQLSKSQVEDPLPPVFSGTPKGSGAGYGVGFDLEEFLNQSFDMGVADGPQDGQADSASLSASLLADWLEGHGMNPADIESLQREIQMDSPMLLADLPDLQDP
Chain of Serine/threonine-protein kinase PAK 1 (Homo sapiens) (Q13153 whole entry): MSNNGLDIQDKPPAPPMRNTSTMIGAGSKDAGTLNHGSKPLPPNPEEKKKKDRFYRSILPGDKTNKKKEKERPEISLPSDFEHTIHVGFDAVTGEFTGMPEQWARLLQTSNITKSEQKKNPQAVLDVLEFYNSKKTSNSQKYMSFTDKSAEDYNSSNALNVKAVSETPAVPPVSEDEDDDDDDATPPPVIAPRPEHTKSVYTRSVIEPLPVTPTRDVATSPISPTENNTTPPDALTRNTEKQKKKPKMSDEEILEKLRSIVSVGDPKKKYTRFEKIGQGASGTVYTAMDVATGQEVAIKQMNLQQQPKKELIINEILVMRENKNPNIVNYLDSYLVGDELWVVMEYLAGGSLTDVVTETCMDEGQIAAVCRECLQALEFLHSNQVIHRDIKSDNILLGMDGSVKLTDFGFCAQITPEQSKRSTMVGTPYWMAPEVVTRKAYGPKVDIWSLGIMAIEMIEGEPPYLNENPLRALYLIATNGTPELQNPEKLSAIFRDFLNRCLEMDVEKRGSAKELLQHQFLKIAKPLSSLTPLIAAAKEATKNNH
Chain of Cyclin-dependent kinase-like 3 (Homo sapiens) (Q8IVW4 whole entry, looked up): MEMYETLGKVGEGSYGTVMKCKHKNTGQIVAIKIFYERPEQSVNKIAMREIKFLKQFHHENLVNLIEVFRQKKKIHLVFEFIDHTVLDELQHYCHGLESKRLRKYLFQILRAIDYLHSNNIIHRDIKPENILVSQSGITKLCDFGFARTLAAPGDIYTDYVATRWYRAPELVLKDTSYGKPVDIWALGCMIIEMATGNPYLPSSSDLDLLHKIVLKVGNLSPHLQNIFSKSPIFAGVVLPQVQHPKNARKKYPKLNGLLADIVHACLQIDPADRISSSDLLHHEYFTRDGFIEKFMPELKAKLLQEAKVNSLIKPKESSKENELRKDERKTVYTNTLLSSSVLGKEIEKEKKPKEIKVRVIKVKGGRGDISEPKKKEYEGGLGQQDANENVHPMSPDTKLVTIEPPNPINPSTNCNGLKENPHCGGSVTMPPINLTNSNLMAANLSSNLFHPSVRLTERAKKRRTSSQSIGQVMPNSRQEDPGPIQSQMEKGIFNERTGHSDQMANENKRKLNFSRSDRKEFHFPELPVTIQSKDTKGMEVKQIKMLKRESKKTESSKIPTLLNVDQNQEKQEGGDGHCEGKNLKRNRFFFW
Chain of Wee1-like protein kinase 2 (Homo sapiens) (P0C1S8 whole entry, looked up): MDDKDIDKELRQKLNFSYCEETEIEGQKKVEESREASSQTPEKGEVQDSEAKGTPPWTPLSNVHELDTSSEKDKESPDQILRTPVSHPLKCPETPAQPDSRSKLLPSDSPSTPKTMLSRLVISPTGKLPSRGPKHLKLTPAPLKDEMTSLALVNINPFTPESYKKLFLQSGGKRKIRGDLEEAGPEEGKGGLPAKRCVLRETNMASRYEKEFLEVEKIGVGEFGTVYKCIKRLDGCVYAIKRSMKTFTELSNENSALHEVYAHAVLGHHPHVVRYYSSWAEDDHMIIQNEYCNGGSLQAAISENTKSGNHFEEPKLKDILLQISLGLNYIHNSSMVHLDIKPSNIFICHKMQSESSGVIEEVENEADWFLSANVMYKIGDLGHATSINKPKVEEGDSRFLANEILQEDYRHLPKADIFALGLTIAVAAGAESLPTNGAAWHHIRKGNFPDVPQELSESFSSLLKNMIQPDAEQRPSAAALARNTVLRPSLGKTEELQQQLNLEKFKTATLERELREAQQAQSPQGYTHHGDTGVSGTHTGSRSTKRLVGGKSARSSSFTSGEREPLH
Chain of Mitogen-activated protein kinase 8 (P45983 whole entry): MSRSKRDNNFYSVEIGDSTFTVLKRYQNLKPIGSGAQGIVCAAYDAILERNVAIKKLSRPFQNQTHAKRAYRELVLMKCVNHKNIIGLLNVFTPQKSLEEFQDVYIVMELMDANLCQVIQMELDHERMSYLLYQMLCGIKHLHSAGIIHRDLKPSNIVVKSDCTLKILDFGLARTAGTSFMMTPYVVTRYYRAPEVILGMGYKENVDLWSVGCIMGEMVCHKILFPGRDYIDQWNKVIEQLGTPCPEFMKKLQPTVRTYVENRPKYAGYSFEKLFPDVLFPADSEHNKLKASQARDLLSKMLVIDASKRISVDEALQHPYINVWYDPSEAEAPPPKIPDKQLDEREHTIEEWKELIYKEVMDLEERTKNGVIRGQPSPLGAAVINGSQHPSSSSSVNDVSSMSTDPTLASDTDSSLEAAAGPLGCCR

SMILES: CC(C)(O)[C@H](F)CN1Cc2cc(NC(=O)c3cnn4cccnc34)c(N3CCOCC3)cc2C1=O
- dTM [1]: -0.1 K

SMILES: COc1cc(N(C)c2ccnc3ccc(C(F)(F)F)cc23)cc(OC)c1OC
- % binding [2]: 87%

SMILES: C=CC(=O)Nc1ccc(C(=O)Nc2[nH]nc3c2CN(C(=O)N[C@H](CN(C)C)c2ccccc2)C3(C)C)cc1
- % of engagement [3]: -14.2%

SMILES: O=C(NOC[C@H](O)CO)c1ccc(F)c(F)c1Nc1ccc(I)cc1F
- % of control [4]: 88%

SMILES: Cc1cc([C@@H](C)Nc2ccccc2C(=O)O)c2nc(N3CCOCC3)cc(=O)n2c1 [AZD-6482]
- % of control [5]: 100%

SMILES: Cn1cc(-n2cnc3c(NCc4nc5cc(Cl)c(Cl)cc5[nH]4)nc(N4CCOCC4)nc32)cn1
- % of control [6]: -4.21%

SMILES: CNC(=O)Nc1ccc(-c2nc(N3CC4CCC(C3)O4)c3cnn(C4CCC5(CC4)OCCO5)c3n2)cc1
- % of control [7]: 92%

SMILES: COCC(=O)NC/C=C/c1ccc2ncnc(Nc3ccc(Oc4ccc(C)nc4)c(C)c3)c2c1 [CP-724714]
- % of control [8]: 81%

SMILES: C=CC(=O)Nc1cc(-n2c(=O)ccc3cnc4ccc(-c5ccc(NS(C)(=O)=O)cc5)cc4c32)ccc1C
- % of control ([9]; at 1 µM): 98%
- % of control ([9]; at 10 µM): 100%

SMILES: O[C@H]1CC[C@H](Nc2ncc3nc(Nc4c(F)cc(F)cc4F)n([C@H]4CCOC4)c3n2)CC1
- % of control [10]: 86%

SMILES: CN(C)C/C=C/C(=O)Nc1ccc(C(=O)N2CCCC(Nc3ncc(Cl)c(-c4c[nH]c5ccccc45)n3)C2)cc1 (stereo not drawn)
- % of control [11]: 92%

SMILES: N#Cc1cccc(-c2c[nH]c3ncnc(N4CCOCC4)c23)c1
- % of inhibition [12]: 57%
